Experimental data taken from patent US5317009A, “Anti-HIV proteins GAP 31, DAP 30 and DAP 32 and therapeutic uses thereof” (New York University, priority 1991, dated 1994).
Entries after “also recorded” stand apart in the source; their conditions may differ.

Tests used:
cells [1] = system: cells
HIV-1 [2] = assay: Syncytia formation in infectious cell center assay (HIV-1 infection); assay type: cell-based, HIV-1 (CEM-ss indicator cells)
From the text: FIG. 2 is a graph showing the effects of GAP 31, DAP 30 and DAP 32 on HIV-1 infection by inhibition of syncytia formation in an infectious cell center assay (ICC). Results represent average values of triplicates from two independent experiments. Triplicate wells of indicator cells containing the test compounds at each concentration without virus were also included for the determination of the cytotoxic and cytostatic activities of these anti-HIV proteins. Infectious cell centers (%ICC) are expressed in terms of Vn/Vo where Vn and Vo are average numbers of syncytia in the drug-treated and untreated samples respectively.
(§1) The anti-HIV activities of GAP 31, DAP 30, and DAP 32 were determined by microtiter syncytia formation in infectious cell center assay (Nara, P. L. et al., Nature 332:469-70 (1988)), viral core protein p24 expression (Nara, P. L. et al., AIDS Res. Human Retroviruses 3:283-302 (1987)), and viral-associated RT activity (Hoffman, A. D. et al., Virology 147:326-35 (1985)). […]
Freshly prepared indicator cells in culture medium at 5×10^4 in 100 μl were treated with 100 μl of SCRIP at various concentrations, for 90 min. […] Focal syncytium formation representing single infectious virion units was scored at day 5 by examination under an inverted microscope. […]

HIV-1 [3] = assay: Viral core protein p24 expression in H9 cell cultures (HIV-1 replication); assay type: cell-based, HIV-1 (H9 cells)
Description: (§2) FIG. 3 is a graph showing the effects of GAP 31, DAP 30 and DAP 32 on HIV-1 replication, measured by viral core antigen p24 expression and HIV-RT activity. p24 production was determined by RIA and expressed in ng/ml. Viral-RT activity was determined by the incorporation of [^3 H]dTTP into TCA-precipitable products and expressed as cpm×10^3 /ml. These values in control culture (without added plant proteins) were 2219 ng/ml and 846×10^3 cpm/ml, respectively, as determined in triplicates in two independent experiments. Results are normalized to values obtained in control cultures.
as §1
(§3) Assays of viral core protein p24 expression and HIV-RT activity were carried out in H9 cell cultures. […] The amount of p24 was measured by RIA and expressed in terms of ng/ml. HIV-RT activity was determined by the incorporation of [^3 H] labeled thymidine with poly(rA).p(dT)12-18 as primer-template and expressed in terms of cpm/ml.

HIV-1 [4] = assay: Viral-associated reverse transcriptase (HIV-RT) activity in H9 cell cultures; assay type: cell-based, HIV-1 (H9 cells)
Description: as §2, §1, §3

H9 cells = assay: Cytotoxicity to uninfected H9 cells (cellular DNA and protein synthesis); assay type: cell-based
Description: FIG. 4 is a graph showing the cytotoxic activity of GAP 31, DAP 30 and DAP 32, measured as cellular incorporation of [^3 H] thymidine or leucine into TCA-insoluble material in pulse labeling experiments. H9 cells were seeded at 2×10^4 cells/well and cultures pulsed with 1 μCi (1 Ci=37 GBq) of label 8 hr prior to harvesting at day 4. DNA or protein synthesis were measured by scintillation counting of the incorporation of labelled precursors. Results are normalized to values obtained for controls cultures without added anti-HIV proteins. Control values for thymidine uptake was 201,000 cpm and for leucine was 61,000 cpm. Results are the average triplicate values in two independent experiments.
The cytotoxicities of the SCRIPs were measured by their effects on cellular DNA and protein syntheses in uninfected H9 cells. Target cells were grown in the absence and presence of various amounts of SCRIPs. The cultures were pulse labeled with 1 μCi of [^3 H] labeled thymidine or leucine for 8 hours prior to harvesting on day 4. Cellular incorporation of these labeled precursors into trichloroacetic acid (TCA) precipitable products was determined by scintillation counting. Cell viability was determined by trypan blue dye exclusion. Toxicity to intact animals was determined by intraperitoneal injection (i.p.) of the SCRIPs into mice. […]

[5] = system: ribosome (rabbit reticulocyte lysate system); assay: Ribosome-inactivating activity: cell-free translation of globin mRNA in rabbit reticulocyte lysate; assay type: biochemical
Description: FIG. 5 is a graph showing the ribosome-inactivating activity of GAP 31, […] and DAP 32, measured as in vitro translation of globin mRNA in a rabbit reticulocyte system. Inhibition of protein synthesis was determined by measuring incorporation of [^3 H]leucine into TCA-insoluble material as a function of drug concentration. Results are from two independent experiments each run in duplicate. Average control values for leucine incorporation without added anti-HIV protein is 65,000 cpm/μl. Results are shown as % of control plotted against concentration of the added anti-HIV protein.
Ribosome-inactivating activity was measured by cell-free protein biosynthesis in a rabbit reticulocyte lysate system. The reaction was carried out in a total volume of 25 μl containing 2 mM magnesium acetate, 80 mM potassium acetate, 2.5 mM spermidine, 34.5 mg/ml creatine phosphate, 26 mg/ml GTP, 250 mM HEPES buffer, 1 μCi of [3H] leucine and 1 μg of globin mRNA. Incubation was conducted at 37° C. for 30 min. The translation products were resolved by TLC in a solvent system of methanol/water/TCA/glacial acetic acid (30/50/10/10, V/V/W/V). The incorporation of [^3 H] labeled leucine into TCA precipitable product was measured by scintillation counting.

CF1 mice = conditions: i.p.
HIV = conditions: literature; cited from earlier work
cells [6] = conditions: literature; cited from earlier work

Substance	toxicity (cytotoxicity) in words (cells [1])	Inhibition of syncytium formation, ID50 (HIV-1 [2]) [nM]	Inhibition of p24 activity (expression), ID50 (HIV-1 [3]) [nM]	Inhibition of Reverse Transcriptase (HIV-RT activity), ID50 (HIV-1 [4]) [nM]	Cytotoxicity, ID50 (H9 cells) [nM]	Ribosome-inactivation, ID50 [5] [nM]	In Vivo Toxicity, LD50 (range) (CF1 mice) [mg/kg]	hepatic hyperplasia (CF1 mice; 0.1-100 mg per 100 gm body weight every three days)	anti-HIV activity (HIV)	cytotoxicity (cells [6])
SAP-6: a SCRIP isolated from Saponaria officinalis	relatively toxic	–	–	–	–	–	–	–	–	–
trichosanthin	toxic	0.34	0.37	0.46	340	3.7	5 to 7	moderate hepatic hyperplasia	reduced viral antigen expression in, and were selectively toxic to, HIV-infected cells	toxic; also recorded: cytotoxic side effects
